US6630174B2, “Methods and compositions for retarding and eradicating infestation in trees and tree derived products” (Nisus Corporation, priority 1990, dated 2003)

What was measured:
[1] = system: broad spectrum of infestation; test: Boron concentration effective against infestation; type: in vivo; conditions: concentration in the wood
[2] = system: dry wood termites; conditions: in vivo; cited from earlier work

O.O.O.O.O=BOB1OB(OB=O)OB2OB([O-])OB([O-])OB(O1)O2.[Na+].[Na+] [DOT, disodium octaborate tetrahydrate]
concentration generally effective for preventing or eradicating a broad spectrum of infestation [1]: 2400 ppm

[B] [boron]
boron concentration efficacious against dry wood termites [2]: 100 parts per million
concentration generally effective for preventing or eradicating a broad spectrum of infestation [1]: 500 ppm
